Laboratory results taken from patent publication US4668677A, “4-phenylphthalazine derivatives, their preparation and their use as pharmaceuticals” (Mitsubishi Chemical Industries Limited, priority 1984, dated 1987).
Where two headings read alike, the source gives them in different places.

Key:
[1] = system: PGI2-like substance in vessel walls; test: Influence on production of PGI2-like substance in vessel walls (ADP aggregation with carotid artery ring); format: in vivo, rat (male Wistar-ST strain); settings: 1 hour, 10 μM ADP
Experimental: Male Wistar-ST strain rats with an average weight of about 250 g were used as experimental animals. After fasted for 18 hours, 6.3 ml of blood sample were obtained from corotid artery and immediately thereafter 0.7 ml of an anticoagulant (3.8% sodium citrate) was added and the sample was centrifuged at 200×g over 15 minutes to take platelet-rich plasma (PRP). The same procedures as above were carried out, using 5 to 6 rats, whereby 5-6 ml as normal PRP were stored and employed.
Reference aggregation values were determined by pouring 1 ml each of stored PRP into plastic test tubes, incubating them at 22° C. for 10 minutes and then determining aggregation rate. As an aggregation inducing agent, one employed 10 μM ADP (available from Sigma Co., Inc.)
A suspension of the compound of this invention or aspirin in a 1% aqueous solution of tragacanth was orally given to animals. After 1 hour, 5 mg of carotid artery were cut out in a ring shape and placed into a plastic test tube together with 1 ml of stored PRP. After incubated at 22° C. for 10 minutes, aggregation rate was determined.
Also, non-medicated groups were similarly treated and aggregation rate was determined.
Determination of blood platelet aggregation rate was made by means of an aggregometer.

carotid artery = test: Action on blood flow volume in carotid artery; format: in vivo, rabbit (male New Zealand White)
Experimental: (§1) Male New Zealand White rabbits (body weight of 2.8 Kg to 3.5 Kg) were used and anesthetized with pentobarbital sodium. Blood flow volumes in the carotid artery and femoral artery were measured and recorded via a non-blood observing type of a probe for measuring blood flow volume. Also, blood pressure in femoral artery was simultaneously measured and recorded with measurement of blood flow.
(§2) The compound of this invention was dissolved in an aqueous solution containing 1% tartaric acid and 1% dimethylacetamide, while papaverine hydrochloride dissolved in 0.9% physiological saline. These test compounds were intravenously given through a residual polyethylene tube within femoral vein.

femoral artery [2] = test: Action on blood flow volume in femoral artery; format: in vivo, rabbit (male New Zealand White)
Experimental: as §1, §2

femoral artery [3] = test: Action on blood pressure in femoral artery; format: in vivo, rabbit (male New Zealand White)
Experimental: as §1, §2

blood platelets = test: Activity to inhibit the aggregation of blood platelets (collagen, ex vivo after oral administration); format: in vivo, rat (male Wistar-ST strain); settings: Rattus norvegicus, Platelet
Experimental: Male Wistar-ST strain rats of an average body weight of 250 g were used, a group consisting of 8 animals. The test compound indicated in the following Table 1 was orally administered to rats in the form of a suspension in a 1% tragacanth aqueous solution at 4 ml/Kg (the test compound 10 mg/Kg).
One hour after the administration, blood samples were obtained from the carotid artery by means of a cannule. […] Tubes were turned upside-down and then subjected to centrifugation at 200×g over 15 minutes to assign the supernatant as a platelet-rich plasma (PRP). The residue was further centrifuged at […] over 15 minutes to assign the supernatant as a platelet-poor plasma (PPP). These supernatants were applied for determining the ability to aggregate blood platelets. […] As an aggregation inducing agent, collagen (availale from Hormon-chemie A.G.) was used at a concentration of 7 to 10 μg/ml.
Inhibitory rate to aggregate blood platelets was calculated according to the following equation: [formula] A: […] in the group to which the 1% tragacanth solution alone was given (Control)
B: Aggregation rate in the group to which the tragacanth solution of the test compound was given.

mice = test: Anti-thrombotic activity: arachidonic acid-induced mortality in mice; format: in vivo, mouse (male ICR-JCL strain); settings: for Survival time of dead mice: arachidonic acid 100 mg/Kg i.v.; for Mortality: arachidonic acid 100 mg/Kg i.v. after 1 hour
Experimental: Male ICR-JCL strain mice with an average body weight of about 25 g and male New Zealand White rabbits with an average body weight of about 3 Kg were used.
Where mice were used as experimental animals, a suspension of the test compound indicated in Table 3 in a 1% tragacanth aqueous solution was orally administered to animals at 20 ml/Kg. One hour after the administration, an arachidonic acid (PL-biochemical Co., Inc.) solution dissolved in a 0.1M sodium carbonate aqueous solution was intravenously given at 100 mg/Kg. Evaluation of activity was effected with the time from the administration of arachidonic acid up to the death of animals as well as mortality.

Q: Which results are given for `CC(C)(C)CNc1nnc(-c2ccccc2)c2ccccc12` [Compound 1, 1-neopentylamino-4-phenylphthalazine]?
A: Aggregation rate with ADP when carotid artery ring added ([1]; 3 mg/Kg oral): 2.7%; Aggregation rate with ADP when carotid artery ring added ([1]; 10 mg/Kg oral): 17.7%; Aggregation rate with ADP when carotid artery ring added ([1]; 30 mg/Kg oral): 10.0%; Blood flow volume in carotid artery, A: Before administration (carotid artery; 0.01 mg/Kg i.v.): 15.5 mL/min; Blood flow volume in carotid artery, B: After administration (carotid artery; 0.01 mg/Kg i.v.): 21.9 mL/min; Blood flow volume in carotid artery, C: Increase degree (carotid artery; 0.01 mg/Kg i.v.): 6.3 mL/min; Blood flow volume in carotid artery, D: Increase rate (carotid artery; 0.01 mg/Kg i.v.): 40.8%; Blood flow volume in carotid artery, A: Before administration (carotid artery; 0.05 mg/Kg i.v.): 14.5 mL/min; Blood flow volume in carotid artery, B: After administration (carotid artery; 0.05 mg/Kg i.v.): 22.7 mL/min; Blood flow volume in carotid artery, C: Increase degree (carotid artery; 0.05 mg/Kg i.v.): 8.1 mL/min; Blood flow volume in carotid artery, D: Increase rate (carotid artery; 0.05 mg/Kg i.v.): 53.7%; Blood flow volume in carotid artery, A: Before administration (carotid artery; 0.1 mg/Kg i.v.): 15.4 mL/min; Blood flow volume in carotid artery, B: After administration (carotid artery; 0.1 mg/Kg i.v.): 26.9 mL/min; Blood flow volume in carotid artery, C: Increase degree (carotid artery; 0.1 mg/Kg i.v.): 11.5 mL/min; Blood flow volume in carotid artery, D: Increase rate (carotid artery; 0.1 mg/Kg i.v.): 74.2%; Blood flow volume in carotid artery, A: Before administration (carotid artery; 0.5 mg/Kg i.v.): 17.3 mL/min; Blood flow volume in carotid artery, B: After administration (carotid artery; 0.5 mg/Kg i.v.): 35.1 mL/min; Blood flow volume in carotid artery, C: Increase degree (carotid artery; 0.5 mg/Kg i.v.): 17.8 mL/min; Blood flow volume in carotid artery, D: Increase rate (carotid artery; 0.5 mg/Kg i.v.): 109.7%; Blood flow volume in femoral artery, A: Before administration (femoral artery [2]; 0.01 mg/Kg i.v.): 19.0 mL/min; Blood flow volume in femoral artery, B: After administration (femoral artery [2]; 0.01 mg/Kg i.v.): 22.1 mL/min; Blood flow volume in femoral artery, C: Increase degree (femoral artery [2]; 0.01 mg/kg i.v.): 3.1 mL/min; Blood flow volume in femoral artery, D: Increase rate (femoral artery [2]; 0.01 mg/kg i.v.): 9.9%; Blood flow volume in femoral artery, A: Before administration (femoral artery [2]; 0.05 mg/Kg i.v.): 18.5 mL/min; Blood flow volume in femoral artery, B: After administration (femoral artery [2]; 0.05 mg/Kg i.v.): 24.3 mL/min; Blood flow volume in femoral artery, C: Increase degree (femoral artery [2]; 0.05 mg/kg i.v.): 5.8 mL/min; Blood flow volume in femoral artery, D: Increase rate (femoral artery [2]; 0.05 mg/kg i.v.): 28.2%; Blood flow volume in femoral artery, A: Before administration (femoral artery [2]; 0.1 mg/Kg i.v.): 18.5 mL/min; Blood flow volume in femoral artery, B: After administration (femoral artery [2]; 0.1 mg/Kg i.v.): 27.8 mL/min; Blood flow volume in femoral artery, C: Increase degree (femoral artery [2]; 0.1 mg/kg i.v.): 9.3 mL/min; Blood flow volume in femoral artery, D: Increase rate (femoral artery [2]; 0.1 mg/kg i.v.): 65.2%; Blood flow volume in femoral artery, A: Before administration (femoral artery [2]; 0.5 mg/Kg i.v.): 19.5 mL/min; Blood flow volume in femoral artery, B: After administration (femoral artery [2]; 0.5 mg/Kg i.v.): 28.2 mL/min; Blood flow volume in femoral artery, C: Increase degree (femoral artery [2]; 0.5 mg/kg i.v.): 8.7 mL/min; Blood flow volume in femoral artery, D: Increase rate (femoral artery [2]; 0.5 mg/kg i.v.): 55.3%; Blood pressure in femoral artery, A: Before administration (femoral artery [3]; 0.01 mg/kg i.v.): 96.0 mmHg; Blood pressure in femoral artery, B: After administration (femoral artery [3]; 0.01 mg/kg i.v.): 92.3 mmHg; Blood pressure in femoral artery, E: Lowering degree (femoral artery [3]; 0.01 mg/kg i.v.): 3.7 mmHg; Blood pressure in femoral artery, F: Lowering rate (femoral artery [3]; 0.01 mg/kg i.v.): 3.8%; Blood pressure in femoral artery, A: Before administration (femoral artery [3]; 0.05 mg/kg i.v.): 91.7 mmHg; Blood pressure in femoral artery, B: After administration (femoral artery [3]; 0.05 mg/kg i.v.): 81.7 mmHg; Blood pressure in femoral artery, E: Lowering degree (femoral artery [3]; 0.05 mg/kg i.v.): 10.0 mmHg; Blood pressure in femoral artery, F: Lowering rate (femoral artery [3]; 0.05 mg/kg i.v.): 10.9%; Blood pressure in femoral artery, A: Before administration (femoral artery [3]; 0.1 mg/kg i.v.): 90.0 mmHg; Blood pressure in femoral artery, B: After administration (femoral artery [3]; 0.1 mg/kg i.v.): 81.7 mmHg; Blood pressure in femoral artery, E: Lowering degree (femoral artery [3]; 0.1 mg/kg i.v.): 8.3 mmHg; Blood pressure in femoral artery, F: Lowering rate (femoral artery [3]; 0.1 mg/kg i.v.): 8.8%; Blood pressure in femoral artery, A: Before administration (femoral artery [3]; 0.5 mg/kg i.v.): 86.7 mmHg; Blood pressure in femoral artery, B: After administration (femoral artery [3]; 0.5 mg/kg i.v.): 63.2 mmHg; Blood pressure in femoral artery, E: Lowering degree (femoral artery [3]; 0.5 mg/kg i.v.): 23.5 mmHg; Blood pressure in femoral artery, F: Lowering rate (femoral artery [3]; 0.5 mg/kg i.v.): 30.1%; inhibition at 3 mg/kg (blood platelets; 3 mg/Kg oral (Table 5), read-out: Inhibitory rate of blood platelet aggregation): 48.1%; inhibition at 10 mg/kg (blood platelets; 10 mg/Kg oral (Table 5), read-out: Inhibitory rate of blood platelet aggregation): 100%; inhibition at 10 mg/kg (blood platelets; 10 mg/Kg oral, 1 hour after administration, collagen 7 to 10 μg/ml, read-out: Inhibitory rate (blood platelet aggregation)): 100%; inhibition at 30 mg/kg (blood platelets; 30 mg/Kg oral (Table 5), read-out: Inhibitory rate of blood platelet aggregation): 100%; Survival time of dead mice (mice; 30 mg/Kg oral): 101 ± 11 s; Mortality (mice; 30 mg/Kg oral): 75%; Survival time of dead mice (mice; 100 mg/Kg oral): 108 ± 11 s; Mortality (mice; 100 mg/Kg oral): 75%; Mortality (mice; 300 mg/Kg oral): 0%
